Data as given in ChEMBL document CHEMBL1201862, “PubChem BioAssay data set” (2004).
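In this assay, cells in 96-well plates receive the compound at five concentrations for 48 hours. Endpoints are linearly interpolated between the surrounding concentrations. At the GI50, growth is halved.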 The source made the active and inactive calls. Cut-off read from the data, not from the text of the source: active = GI50 up to about 1.1 µM and inactive = higher.

Legend:
Test in all cases: growth of human tumour cells (NCI), 48 h
[1] = system: HOP-62
[2] = system: T47D
[3] = system: M14
[4] = system: 786-0
[5] = system: PC-3
[6] = system: OVCAR-3
[7] = system: SK-MEL-5
[8] = system: SNB-75
[9] = system: UACC-257
[10] = system: NCI-H23
[11] = system: EKVX
[12] = system: ACHN
[13] = system: MDA-MB-435
[14] = system: HCT-116
[15] = system: IGROV-1
[16] = system: BT-549
[17] = system: SW-620
[18] = system: TK-10
[19] = system: Hs-578T
[20] = system: HOP-92

Measured: GI50

CCOC(=O)c1nnsc1NC(=O)Nc1ccc(Cl)cc1
inactive: [1] 68.9 µM | [2] 34.3 µM | [3] 77.1 µM | [4] 21.1 µM | [5] 33 µM | [6] 43.2 µM | [7] > 100 µM | [8] 21.1 µM | [9] > 100 µM | [10] 32.8 µM | [11] 42 µM | [12] > 100 µM | [13] > 100 µM | [14] 25.4 µM | [15] 31 µM | [16] > 100 µM | [17] > 100 µM | [18] > 100 µM | [19] 30.1 µM

Cc1cc(S(=O)(=O)Nc2nc(N)nc(N3N=CCC3C)n2)c(SCC(=O)O)cc1Cl (configuration not stated)
inactive: [1] > 10 µM | [2] > 10 µM | [3] > 10 µM | [4] > 10 µM | [5] > 10 µM | [6] > 10 µM | [7] > 10 µM | [8] > 10 µM | [9] > 10 µM | [10] > 10 µM | [11] > 10 µM | [12] > 10 µM | [13] > 10 µM | [14] > 10 µM | [15] > 10 µM | [16] > 10 µM | [17] > 10 µM | [18] > 10 µM | [19] > 10 µM

COc1cc2c(c(O)c1OC)C(=O)[C@@H]1CCC(=O)N1C2c1ccccc1 (some centres not stated)
inactive: [1] > 100 µM | [2] > 100 µM | [3] > 100 µM | [4] > 100 µM | [5] 31.8 µM | [6] 65.6 µM | [7] > 10 µM | [8] 35.6 µM | [9] > 100 µM | [10] > 100 µM | [11] 51.9 µM | [12] 85.7 µM | [13] 90.6 µM | [14] 66.8 µM | [15] > 100 µM | [16] > 100 µM | [17] > 100 µM | [18] > 100 µM | [19] 40.5 µM

Cc1cc(-c2c(Br)cc(C(=O)O)n2C)on1
inactive: [1] > 100 µM | [2] > 100 µM | [3] > 100 µM | [4] > 100 µM | [5] > 100 µM | [6] > 100 µM | [7] > 100 µM | [8] > 100 µM | [9] > 100 µM | [20] > 100 µM | [10] > 100 µM | [11] > 100 µM | [12] > 100 µM | [13] > 100 µM | [14] > 100 µM | [16] > 100 µM | [17] > 100 µM | [18] > 100 µM

OC1(c2ccccc2)CC2CCC(C1)N2CCCC1(c2ccc(F)cc2)OCCO1 (configuration not stated)
inactive: [1] > 100 µM | [2] > 100 µM | [3] 21 µM | [4] 18.2 µM | [5] 22.5 µM | [6] > 100 µM | [7] 21.3 µM | [8] > 100 µM | [9] 28.1 µM | [10] > 100 µM | [11] > 100 µM | [12] > 100 µM | [13] > 100 µM | [14] > 100 µM | [15] > 100 µM | [16] > 100 µM | [17] > 100 µM | [18] > 100 µM | [19] > 100 µM

O=C1CC(=O)c2c(Cl)sc(Cl)c21
inactive: [1] > 100 µM | [2] > 100 µM | [3] > 100 µM | [4] > 100 µM | [6] 86.5 µM | [7] > 100 µM | [8] > 100 µM | [9] > 100 µM | [20] > 100 µM | [10] 51.6 µM | [11] > 100 µM | [12] > 100 µM | [13] 64.1 µM | [14] > 100 µM | [15] > 100 µM | [16] > 100 µM | [17] 91 µM | [18] > 100 µM | [19] 33.8 µM

CNC(=S)N/N=C(C)\C(=N/NC(=S)NC)c1ccccc1
inactive: [1] > 100 µM | [3] 61.4 µM | [4] 50 µM | [5] 30.9 µM | [6] 86.9 µM | [7] 42.3 µM | [8] 69.8 µM | [9] > 100 µM | [10] > 100 µM | [11] 38 µM | [12] 19.9 µM | [14] 31.6 µM | [15] 27.8 µM | [16] > 100 µM | [18] > 100 µM | [19] 17.8 µM

O=S1(=O)c2ccccc2N2CCCc3cc(Cl)cc1c32
inactive: [1] 41.1 µM | [3] > 100 µM | [4] 40.4 µM | [5] > 100 µM | [6] 67.5 µM | [7] > 100 µM | [8] 12.6 µM | [9] > 100 µM | [11] > 100 µM | [12] > 100 µM | [13] > 100 µM | [14] > 100 µM | [15] > 100 µM | [16] > 100 µM | [17] > 100 µM | [18] > 10 µM | [19] 27.4 µM

Cc1cc(OCc2nnc3n2N=C(c2cc(F)c(Cl)cc2Cl)/C(=C/c2ccc(-c4ccc(Cl)cc4)o2)S3)ccc1Cl
inactive: [1] > 50 µM | [2] 7.93 µM | [3] > 50 µM | [4] > 50 µM | [5] 14.6 µM | [6] 30.5 µM | [7] 46.5 µM | [9] > 50 µM | [10] 26.7 µM | [11] 16.3 µM | [12] > 50 µM | [13] 19.3 µM | [14] 48.2 µM | [15] 12.1 µM | [16] > 50 µM | [17] 32.9 µM | [18] 41.2 µM | [19] > 50 µM

COC(=O)c1cc(NC(=O)c2cc(NC(=O)c3cc([N+](=O)[O-])cn3C)cn2C)cn1C
active: [15] 0.0147 µM
inactive: [1] > 100 µM | [2] 12 µM | [3] > 100 µM | [4] > 100 µM | [5] 94.2 µM | [6] > 100 µM | [7] 10.2 µM | [8] > 100 µM | [20] 14.3 µM | [10] 30.8 µM | [11] 34.1 µM | [12] 66.1 µM | [13] 98.6 µM | [14] 43.4 µM | [16] > 100 µM | [17] > 100 µM | [18] 20.3 µM

CCOC(=O)c1cc(-c2cc(OC)c(OC)c([N+](=O)[O-])c2)c([N+](=O)[O-])n1C
inactive: [3] 8.57 µM | [4] > 10 µM | [6] 7.67 µM | [8] > 10 µM | [9] 3.02 µM | [20] > 10 µM | [10] 6.37 µM | [11] > 10 µM | [12] 9.04 µM | [13] 2.04 µM | [14] 5.33 µM | [15] 5.9 µM | [16] > 10 µM | [18] > 10 µM | [19] 4.21 µM
